# Data reported in patent publication US8524195B2, “Iron oxide nanoparticles as MRI contrast agents and their preparing method” (Korea Basic Science Institute, priority 2010, dated 2013).
# Test system: colon cancer (HT-29) cells
# Assay: XTT assay, relative viability of colon cancer (HT-29) cells
# Format: cell-based
# Conditions: after 24 hours
# Experimental: Samples were prepared by introducing the nano contrast agents (CIONPs) and the iron oxide (Fe3O4) nanoparticle drug carriers (DOX-CIONPs) prepared in Examples 2 and 3 and anti-cancer medicines (Doxorubicine) into colon cancer (HT-29) cells by concentrations of 0.001, 0.01, 0.1, 1 and 10 mM. After 24 hours, XTT reagent was added to each sample and relative viability of cancer cells according to the concentration of CIONPs, DOX-CIONPs and anti-cancer medicines (Doxorubicine) were measured. The measurement was carried out by comparing optical absorbances of formazan products from the cancer cells using an absorption spectrometer (XTT assay).
compound,measurement,setting,value
COc1cccc2c1C(=O)c1c(O)c3c(c(O)c1C2=O)C[C@@](O)(C(=O)CO)C[C@@H]3O[C@H]1C[C@H](N)[C@H](O)[C@H](C)O1 [Doxorubicine],cancer cells perished,0.1 mM,35%
same,cancer cells perished,1 mM,60%
same,cancer cells perished,10 nm (so in the source),62%
